These results are taken from paper PMC4942819 (Scientific Reports, 2016).

Each structure is given as a SMILES string. Values after ≈ are worked out from the molar mass of the structure shown.

For the first experiment, the system named is H37Rv. Kind of experiment: microbe, parasite or virus in culture. The class given is cell-based, Mycobacterium tuberculosis. The settings on record: Mycobacterium tuberculosis, H37RV, read-out: MIC, strain H37Rv.
As for `NCC[C@H](O)C(=O)N[C@@H]1C[C@H](N)[C@@H](O[C@H]2O[C@H](CN)[C@@H](O)[C@H](O)[C@H]2O)[C@H](O)[C@H]1O[C@H]1O[C@H](CO)[C@@H](O)[C@H](N)[C@H]1O` [AMK, amikacin], the MIC was determined as 0.5 µg/mL (≈ 0.854 µM).

Take `CC[C@@H](CO)NCCN[C@@H](CC)CO` [EMB, ethambutol]: the MIC came out at 1 µg/mL (≈ 4.89 µM).

For the compound `NNC(=O)c1ccncc1` [INH, isoniazid], the MIC came out at 0.03 µg/mL (≈ 0.219 µM).

With `COc1c(N2C[C@@H]3CCCN[C@@H]3C2)c(F)cc2c(=O)c(C(=O)O)cn(C3CC3)c12` [MOX, moxifloxacin], the MIC amounted to 0.06 µg/mL (≈ 0.149 µM).

Turning to `CC1COc2c(N3CCN(C)CC3)c(F)cc3c(=O)c(C(=O)O)cn1c23` (stereo not shown) [OFLX, ofloxacin], the MIC is 0.5 µg/mL (≈ 1.38 µM).

Take `CO[C@H]1/C=C/O[C@@]2(C)Oc3c(C)c(O)c4c(O)c(c(/C=N/N5CCN(C)CC5)c(O)c4c3C2=O)NC(=O)/C(C)=C\C=C\[C@H](C)[C@H](O)[C@@H](C)[C@@H](O)[C@@H](C)[C@H](OC(C)=O)[C@@H]1C` [RMP, rifampicin]: the MIC is under 0.03 µg/mL.

As to `O=[N+]([O-])c1cc(C(F)(F)F)cc2c(=S)nc(N3CCC4(CC3)OCCO4)sc12` [SKLB-TB1001, 8-nitro-2-(1,4-dioxa-8-azaspiro[4.5]decan-8-yl)-6-(trifluoromethyl)-4H-benzo[e][1,3]thiazine-4-thione], the MIC is under 0.0156 µg/mL.

Consider `[H]/N=C(/N)N[C@H]1[C@H](O)[C@@H](O)[C@H](O[C@@H]2O[C@@H](C)[C@](O)(C=O)[C@H]2O[C@@H]2O[C@@H](CO)[C@H](O)[C@@H](O)[C@@H]2NC)[C@@H](N/C(N)=N\[H])[C@@H]1O` [SM, streptomycin], for which the MIC stood at 1 µg/mL (≈ 1.72 µM).

The same experiment, now with this note: Table 2 prints no unit; test range in method b43 in μg/mL.
For `NC[C@H]1O[C@H](O[C@H]2[C@H](O)[C@@H](O[C@H]3O[C@H](CO)[C@@H](O)[C@H](N)[C@H]3O)[C@H](N)C[C@@H]2N)[C@H](O)[C@@H](O)[C@@H]1O` [KM, kanamycin], the “MIC, strain H37Rv” value stood at 1 µg/mL (≈ 2.06 µM).

Turning to `C[C@H]1COc2c(N3CCN(C)CC3)c(F)cc3c(=O)c(C(=O)O)cn1c23` [LVFX, levo-ofloxacin], the “MIC, strain H37Rv” value was 0.25 µg/mL (≈ 0.692 µM).
